“And” between values parts separate entries of the source, which are not always exact repeats. Identical values can stand only once. Marks after values point to notes of the source that are not given here.
Tests used:
M-Hela = experiment: Cytotoxicity assay (Cytell Cell Imaging, DAPI/propidium iodide), cancer cell line; type: cell-based; conditions: Homo sapiens; M-Hela; tested at 1–100 µM; three independent experiments; read-out: IC50 Cancer Cell Line M-Hela
Chang liver cell line = experiment: Cytotoxicity assay (Cytell Cell Imaging), normal cell line; type: cell-based; conditions: Homo sapiens, tested at 1–100 µM, three independent experiments, read-out: IC50 Normal Cell Line Chang Liver
[1] = test system: Acinetobacter calcoaceticus VKPM B-10353; experiment: Biofilm formation, crystal violet assay; type: cell-based; conditions: A. calcoaceticus VKPM B-10353; for Biofilm Formation: control = 100%
Experimental: (§1) Bacterial strains and cultivation conditions. For the detection of biofilms, formation strains Vibrio aquamarinus DSM 26054 and Acinetobacter calcoaceticus VKPM B-10353 were used. These strains form biofilms, making them useful for studying biofilms.
(§2) The bacterial strains Acinetobacter calcoaceticus VKPM B-10353, E. coli MG1655 (pRecA-lux), and E. coli MG1655 (pSoxS-lux) were cultivated in Luria–Bertani (LB) medium under constant shaking to early exponential phase at 37 °C. Cells were used immediately for stress induction tests. One hundred micrograms of ampicillin per milliliter were added into LB medium at cultivation of E. coli MG1655 (pRecA-lux) and E. coli MG1655 (pSoxS-lux). Strain V. aquamarinus DSM 26054 was grown in LB medium supplemented with 3% NaCl.
(§3) The test compounds were dissolved in DMSO to the concentration of 1 × 10^−2 M. Then, they were diluted with ethanol. The control solutions were analogous dilutions of DMSO in ethanol. The tested compounds were also compared with the standard antibiotic azithromycin. Azithromycin was dissolved in DMSO to the concentration of 5 × 10^−3 M and then diluted with deionized water.
(§4) Test system for evaluation of biofilms production. To quantify the formation of biofilms, the crystal violet assay was used, with some modifications. The necessary concentrations of the test compounds were prepared as described above.
(§5) V. aquamarinus DSM 26054 was cultivated for 24 h in LB medium supplemented with 3% NaCl in the Innova 40R shaker incubator (New Brunswick Scientific, USA) at 25 °C and 200 rpm. A. calcoaceticus VKPM B-10353 was cultivated for 24 h in LB medium in the Innova 40R shaker incubator (New Brunswick Scientific, Enfield, CT, USA) at 30 °C and 200 rpm. Then, the suspensions of the daily culture of V. aquamarinus DSM 26054 and A. calcoaceticus VKPM B-10353 were diluted with LB medium supplemented with 3% NaCl to the density of 1 × 10^8 cells/mL.
(§6) The resulting suspension (180 μL) was added to the wells of a polystyrene microplate (Nuova Aptaca, Canelli, Italy). To some of the wells, 20 μL of the test substances at various concentrations were added. Since solvents used could also influence the biofilm formation, 20 μL of the appropriate solvent was added to the other part of the wells at same dilutions (control). Six replicates were done for each treatment and control. The microplate was covered with a lid and wrapped with Parafilm (Bemis Company, Inc., Oshkosh, WI, USA).
(§7) After incubation at 25 °C for 72 h, biofilms were stained. The contents in the wells were removed by means of a dispenser. The wells were then carefully washed three times with 250 μL of sterile saline. The microplates were shaken to remove all non-adherent bacteria. Biofilms were fixed with 200 μL of 96% ethanol for 15 min. After the microplates had dried in air, 200 μL of 0.5% crystal violet was introduced into the wells. After 10 min, the dye was removed. The excess dye was removed by washing with water three times. After the microplates were air-dried, the dye in the wells bound to biofilms was dissolved with 200 μL of 96% ethanol. The extraction level (absorption) of crystal violet by ethanol was measured after 60 minutes at a wavelength of 570 nm using a FLUOstar Omega microplate reader (BMG Labtech, Offenburg, Germany) in optical density units (OD570). The intensity of biofilm formation directly corresponds to the intensity of staining of the contents of the wells with the dye. Biofilm formation was determined by the difference between the mean OD readings obtained in the presence of compounds and the control.
(§8) Each experiment was performed in triplicate. The values were expressed as mean + SD. Student’s t-test was used to compare these values. Differences were considered statistically significant at p < 0.05.

[2] = test system: Vibrio aquamarinus DSM 26054; experiment: Biofilm formation, crystal violet assay; type: cell-based; conditions: V. aquamarinus DSM 26054, control = 100%
Experimental: as §1, §2, §3, §4, §5, §6, §7, §8

[3] = test system: Escherichia coli MG1655 (pRecA-lux); experiment: Genotoxicity, bacterial lux-biosensor; type: cell-based
Description: (§9) E. coli MG1655 (pRecA-lux) was used for the evaluation of the genotoxicity of the synthesized compounds. The biosensor with the PrecA promotor fixes the presence of the factors causing damage of DNA in a cell. The biosensor E. coli MG1655 (pSoxS-lux) was used for the evaluation of prooxidant activity. The biosensor with the PsoxS promoter fixes the production of superoxide anion and NO [75]. Bioluminescent strains were obtained by the transformation of E. coli MG1655 by hybrid plasmids pRecA-lux, pSoxS-lux. The gene cassette luxCDABE Photorhabdus luminescens under the control PrecA promoters was used in this biosensor. This plasmid was created on the basis of pBR322 and contained a selective marker of ampicillin resistance (Amp gene). The strains were kindly furnished by Manukhov I.V., Federal State Unitary Enterprise “GosNIIGenetika”).
as §2
(§10) Biosensors assay procedure. The detailed protocol of toxicity testing by means of a bacterial lux-biosensors is described in the article.
(§11) Calculation. The criterion of toxic influence was bioluminescence intensity change of the test object in the researched sample in comparison with the control sample.
(§12) The induction factor (I) was defined as the relation of luminescence intensity of a lux-biosensor suspension containing tested sample (Lc) to the luminescence intensity of a lux-biosensor control suspension (Lk): I = Lc/Lk.
If at significant differences from control induction factor values were ≤2, the detected genotoxic effect was evaluated as “weak”, if they were in the range from 2 to 10 as “medium”, and above 10 as “strong”. All the experiments were carried out three times independently.
(§13) Difference reliability of bioluminescence in experiment from control value was estimated by t-criterion with the help of Excel software. The conclusions about sample toxicity were made at p < 0.05.

[4] = test system: E. coli MG1655 (pSoxS-lux); experiment: Prooxidant activity, bacterial lux-biosensor; type: cell-based, Escherichia coli
Description: as §9, §2, §10, §11, §12, §13

[5] = concentration range of 10^−9–10^−5 M
[6] = with metabolic activation (+S9), 10^−5 M
[7] = with metabolic activation (+S9), 10^−6 M
[8] = with metabolic activation (+S9), 10^−7 M
[9] = with metabolic activation (+S9), 10^−8 M
[10] = with metabolic activation (+S9), 10^−9 M
[11] = without metabolic activation (-S9), 10^−5 M
[12] = without metabolic activation (-S9), 10^−6 M
[13] = without metabolic activation (-S9), 10^−7 M
[14] = without metabolic activation (-S9), 10^−8 M
[15] = without metabolic activation (-S9), 10^−9 M

Row | Structure (SMILES) | IC50 (M-Hela) | IC50 (Chang liver cell line) | Biofilm Formation ([1]; 1 × 10^−5 M) | Biofilm Formation ([1]; 1 × 10^−6 M) | Biofilm Formation ([1]; 1 × 10^−7 M) | Biofilm Formation ([1]; 1 × 10^−8 M) | Biofilm Formation ([1]; 1 × 10^−9 M) | Biofilm Formation ([2]; 1 × 10^−5 M) | Biofilm Formation ([2]; 1 × 10^−6 M) | Biofilm Formation ([2]; 1 × 10^−7 M) | Biofilm Formation ([2]; 1 × 10^−8 M) | Biofilm Formation ([2]; 1 × 10^−9 M) | Genotoxicity (induction factor, I) [3, 6] | Genotoxicity (induction factor, I) [3, 7] | Genotoxicity (induction factor, I) [3, 8] | Genotoxicity (induction factor, I) [3, 9] | Genotoxicity (induction factor, I) [3, 10] | Genotoxicity (induction factor, I) [3, 11] | Genotoxicity (induction factor, I) [3, 12] | Genotoxicity (induction factor, I) [3, 13] | other results
1 | O=C(Nc1ccc(F)cc1)N1CCCC1c1ccc(Nc2c([N+](=O)[O-])c(Cl)cc3c2no[n+]3[O-])cc1O (centres unmarked) [6e, 6-Chloro-4-((4-(1-((4-fluorophenyl)carbamoyl)pyrrolidin-2-yl)-3-hydroxyphenyl)amino)-5-nitrobenzo[c][1,2,5]oxadiazole 1-oxide] | 26 ± 1.8 µM | 48 ± 3 µM | 86.50% | 53.27 * % | 55.40 * % | 47.66 * % | 87.92 * % | 39.57 * % | 26.02 * % | 11.01% and 11.01 * % | 17.96 * % | 67.29% | 1.24 ± 0.02 | 1.47 ± 0.04 | 1.45 ± 0.02 | 1.35 ± 0.04 | 1.43 ± 0.01 | 2.00 ± 0.02 | 2.39 ± 0.02 | 2.46 ± 0.02 | detected genotoxic effect, class [3, 5]: medium (in the range from 2 to 10); Genotoxicity (induction factor, I) [3, 14]: 2.74 ± 0.04; Genotoxicity (induction factor, I) [3, 15]: 2.56 ± 0.10; Prooxidant activity (induction factor) ([4]; 10^−5 M): 0.84 ± 0.04; Prooxidant activity (induction factor) ([4]; 10^−6 M): 1.34 ± 0.10; Prooxidant activity (induction factor) ([4]; 10^−7 M): 1.85 ± 0.15; prooxidant response, in words ([4]; 10^−7 M): weak response; Prooxidant activity (induction factor) ([4]; 10^−8 M): 1.25 ± 0.28; Prooxidant activity (induction factor) ([4]; 10^−9 M): 0.93 ± 0.03; melting point: 175 to 177 °C (dec.)
2 | O=C(Nc1ccc(Br)cc1)N1CCCC1c1ccc(Nc2c([N+](=O)[O-])c(Cl)cc3c2no[n+]3[O-])cc1O (centres unmarked) [6d, 4-((4-(1-((4-Bromophenyl)carbamoyl)pyrrolidin-2-yl)-3-hydroxyphenyl)amino)-6-chloro-5-nitrobenzo[c][1,2,5]oxadiazole 1-oxide] | 25.5 ± 1.6 µM | 53 ± 3.8 µM | 89.50% | 95.71% | 50.00 * % | 46.95% and 46.95 * % | 79.16 * % | 63.12% | 24.11 * % | 10.70 * % | 6.46% and 6.46 * % | 67.29 * % | 0.66 ± 0.04 | 0.71 ± 0.03 | 0.71 ± 0.05 | 0.79 ± 0.03 | 0.76 ± 0.05 | 0.60 ± 0.02 | 0.70 ± 0.01 | 0.62 ± 0.03 | DNA-damaging property, in words ([3]; 10^−9–10^−5 M, with and without S9): do not belong to the class of DNA-damaging substances; Genotoxicity (induction factor, I) [3, 14]: 0.70 ± 0.01; Genotoxicity (induction factor, I) [3, 15]: 0.64 ± 0.03; Prooxidant activity (induction factor) ([4]; 10^−5 M): 1.10 ± 0.07; Prooxidant activity (induction factor) ([4]; 10^−6 M): 1.60 ± 0.23; prooxidant response, in words ([4]; 10^−6 M): weak response; Prooxidant activity (induction factor) ([4]; 10^−7 M): 1.11 ± 0.01; Prooxidant activity (induction factor) ([4]; 10^−8 M): 1.11 ± 0.07; Prooxidant activity (induction factor) ([4]; 10^−9 M): 1.34 ± 0.09; melting point: 166 to 170 °C (dec.)
3 | O=C(Nc1ccccc1)N1CCCC1c1ccc(Nc2c([N+](=O)[O-])c(Cl)cc3c2no[n+]3[O-])cc1O (centres unmarked) [6b, 6-Chloro-4-((3-hydroxy-4-(1-(phenylcarbamoyl)pyrrolidin-2-yl)phenyl)amino)-5-nitrobenzo[c][1,2,5]oxadiazole 1-oxide] | 56 ± 4.1 µM | > 100 µM | 119.69 * % | 88.44% | 73.93 * % | 70.79 * % | 90.41% | 89.12% | 39.02 * % | 26.04 * % | 15.42 * % | 8.21 * % | 1.23 ± 0.02 | 1.36 ± 0.04 | 1.30 ± 0.02 | 1.31 ± 0.01 | 1.47 ± 0.04 | 1.77 ± 0.04 | 2.15 ± 0.06 | 2.07 ± 0.11 | Biofilm formation with respect to control, over the investigated concentrations ([1]; 1 × 10^−9–1 × 10^−5 M): both suppressing and stimulating; detected genotoxic effect, class ([3]; concentration of 10^−5 M): weak (induction factor values were ≤2); detected genotoxic effect, class [3, 5]: medium (in the range from 2 to 10); Genotoxicity (induction factor, I) [3, 14]: 2.28 ± 0.12; Genotoxicity (induction factor, I) [3, 15]: 2.34 ± 0.06; Prooxidant activity (induction factor) ([4]; 10^−5 M): 0.89 ± 0.03; Prooxidant activity (induction factor) ([4]; 10^−6 M): 1.24 ± 0.11; Prooxidant activity (induction factor) ([4]; 10^−7 M): 1.04 ± 0.04; Prooxidant activity (induction factor) ([4]; 10^−8 M): 1.21 ± 0.00; Prooxidant activity (induction factor) ([4]; 10^−9 M): 1.03 ± 0.10; prooxidant activity, in words ([4]; 10^−9–10^−5 M): did not possess prooxidant activity; melting point: 165 to 170 °C (dec.)

From publication PMC6749236, “Synthesis of Novel 2-(Het)arylpyrrolidine Derivatives and Evaluation of Their Anticancer and Anti-Biofilm Activity” (Molecules, 2019)
